This note sets out measurements from US10695314B2, “Antimicrobial composition containing 7,10-epoxyoctadeca-7,9-dienoic acid as active ingredient” (priority 2016, dated 2020).

≈ marks a conversion by molar mass, not a printed value. Read-outs that look alike come from different tables or passages of the source.

In assay [1] the test system is Staphylococcus aureus ATCC 29213. Kind of assay: Antimicrobial activity on solid medium (clear zone around filter paper). The class given is cell-based. The conditions noted are these: FIG. 3. How it is done: (§1) First, 1.5% of potato agar was added to the YDP medium, sterilized, and then an agar plate hardened by pouring about 20 ml in a plastic Petri dish was used. MRSA 01ST001 was diluted to about 107/ml, and then about 500 μl was dispersed evenly on the agar plate.
(§2) The size of the clear zone around the filter paper shown after the culture at 37° C. for 2 to 3 days after the inoculation was measured to confirm the degree of antimicrobial activity. At this time, vancomycin 100 μg, oxacillin 100 μg, ampicillin 100 μg, streptomycin 100 μg, and penicillin 100 μg were used as control groups.
(§3) The antimicrobial activity can be confirmed with the degree showing the clear zone on the agar plate. It is judged that the larger the clear zone, the higher the antimicrobial activity. The results are illustrated in FIG. 1 and FIG. 2.
(§4) The results are illustrated in FIG. 3. The experiment was carried out in the same manner as in Example 1-2.

For assay [2], the system named is MRSA 01ST001 (MDRSA 01ST001). The description is as above. It is filed as cell-based, Staphylococcus aureus. The conditions noted are these: for clear zone on agar plate: 100 μg per filter paper, 37° C., 2 to 3 days, FIG. 1. As for the experimental part:
as §1, §2, §3, §4

In assay [3] the test system is Staphylococcus aureus ATCC 29213. Kind of assay: Agar disk diffusion analysis, zone of inhibition (ZOI). It is filed as cell-based. The conditions noted are these: strain 29213; for ZOI without 7.10-EODA: antibiotic ½×MIC alone; for ZOI with 7.10-EODA: antibiotic ½×MIC with 7,10-EODA ¼×MIC. How it is done:
(§5) For synergy effect screening, a 0.1 mL aliquot of MRSA or MSSA strain (5×10^5 CFU/mL) cultured in a log-phase on TSA plates was inoculated. […] A disk including DMSO alone or 7,10-EODA alone (¼×MIC) was used as a control group. The plates were cultured under conditions of […] and 24 hours, and a synergistic effect was observed when the disk periphery including both antibiotic and 7,10-EODA was at least 5 mm in zone of inhibition (ZOI).
(§6) Specifically, the minimal inhibitory concentration (MIC) was measured according to the method of Experimental Example 4 above, and the degree of inhibition (Agar diffusion analysis) (zone of inhibition; ZOI) was measured according to the method of Experimental Example 5 above.

Assay [4] relates to MDRSA 01ST001. The assay is described as above. The class given is cell-based, Staphylococcus aureus. The note with it: for ZOI without 7.10-EODA / ZOI with 7.10-EODA: strain 001; for ZOI without 7.10-EODA: antibiotic ½×MIC alone; for ZOI with 7.10-EODA: antibiotic ½×MIC with 7,10-EODA ¼×MIC; for antimicrobial activity, disk diffusion: 100 μg each, FIG. 4; for antimicrobial activity effect in combination with 7,10-EODA: antibiotic treated in combination with 7,10-EODA, Table 1 summary. How it is done:
as §5
Specifically, in order to compare the antimicrobial activity of the 7,10-EODA or the antibiotic of the present invention against the MDRSA 01ST001 strain, the MDRSA 01ST001 strain was treated with the 7,10-EODA (E 100 μg) of the present invention, streptomycin (S, 100 μg), ampicillin (A, 100 μg), oxacillin (O, 100 μg), vancomycin (V, 100 μg), or penicillin (P, 100 μg), according to the method described in Experimental Example 5.
as §6
On the technique in general: In agar diffusion tests the substance spreads into inoculated agar from a disc or well.

The test system of assay [5] is MDRSA 01ST001. Kind of assay: Minimal inhibitory concentration (MIC), broth microdilution per CLSI. On the technique in general: Dilution methods test growth across graded concentrations, often in twofold steps.
Assay [6] concerns Staphylococcus aureus ATCC 29213. The description is as above. The class given is cell-based. The conditions noted are these: strain 29213 (ATCC 29213), antibiotic alone. How it is done: The minimum inhibitory concentration (MIC) of antibiotics and the activity of 7,10-EODA of the present invention against Staphylococcus aureus strains were measured according to the CLSI guideline (CLSI document M100-517, 2007). Specifically, each antibiotic or 7,10-EODA was diluted 2-fold (200-0.97 μg/mL) by adding MHB (Mueller-Hinton Broth) to a 96-well microtiter plate. In the mid-exponential phase (0.5 OD600), the culture was diluted 10-fold with MHB and 0.1 mL aliquots of the diluent were added to wells containing the serially diluted test reagent and cultured at 37° C. for 12 hours. About the end of the culture period, the cell density was measured at an optical density of 600 nm (OD600) using a […].
as §6

Setting [7] is: Staphylococcus aureus, ATCC29213, read-out: MIC.
[8] abbreviates: strain 001 (MDRSA 01ST001), antibiotic alone.

Consider `CN[C@H](CC(C)C)C(=O)N[C@H]1C(=O)N[C@@H](CC(N)=O)C(=O)N[C@H]2C(=O)N[C@H]3C(=O)N[C@H](C(=O)N[C@H](C(=O)O)c4cc(O)cc(O)c4-c4cc3ccc4O)[C@H](O)c3ccc(c(Cl)c3)Oc3cc2cc(c3O[C@@H]2O[C@H](CO)[C@@H](O)[C@H](O)[C@H]2O[C@H]2C[C@](C)(N)[C@H](O)[C@H](C)O2)Oc2ccc(cc2Cl)[C@H]1O` [vancomycin], for which the “antimicrobial activity on solid medium” value in assay [1] was “same antimicrobial activity”; in assay [2] (MDRSA 01ST001, FIG. 3) it was “same antimicrobial activity”. For the same molecule, the “clear zone on agar plate” value in assay [2] is on record as “clear zone appeared”.

In the case of `COc1cc(Cc2cnc(N)nc2N)cc(OC)c1OC` [TMP, trimethoprim], the figures for the “ZOI without 7.10-EODA” value (in assay [3]; in the assay on MDRSA 01ST001 [4]) were 8.9 ± 0.1 mm and 6.0 ± 0.0 mm, respectively. In addition, the “ZOI with 7.10-EODA” value was determined as 12.3 mm in assay [3] and 6.00 mm with MDRSA 01ST001 [4]. For the same molecule, the MIC (in the assay with MDRSA 01ST001 [5] (Staphylococcus aureus); in assay [6] (setting [7])) was 7.8 µg/mL (≈ 26.9 µM) in each case.

In the case of `CO[C@H]1/C=C/O[C@@]2(C)Oc3c(C)c(O)c4c(O)c(c(/C=N/N5CCN(C)CC5)c(O)c4c3C2=O)NC(=O)/C(C)=C\C=C\[C@H](C)[C@H](O)[C@@H](C)[C@@H](O)[C@@H](C)[C@H](OC(C)=O)[C@@H]1C` [RIF, rifampicin], the “ZOI without 7.10-EODA” value in assay [3] worked out at 21.0 ± 0.8 mm; in the assay with MDRSA 01ST001 [4], 18.3 ± 0.2 mm. Further, the “ZOI with 7.10-EODA” value in the assay with MDRSA 01ST001 [4] amounted to 20.2 mm. Moreover, the MIC (in the assay with MDRSA 01ST001 [5] (Staphylococcus aureus); in assay [6] (setting [7])) was 5 µg/mL (≈ 6.08 µM) throughout.

Consider `CN(C)CCCN1c2ccccc2Sc2ccc(Cl)cc21` [CPZ, chlorpromazine], for which the “ZOI without 7.10-EODA” value in assay [3] was 6.0 ± 0.0 mm; in the assay with MDRSA 01ST001 [4], 7.2 ± 0.1 mm. Further, the “ZOI with 7.10-EODA” value in assay [3] turned out to be 8.05 mm; with MDRSA 01ST001 [4], 12.0 mm. Also, the results for the MIC (in the assay with MDRSA 01ST001 [5] (Staphylococcus aureus); in assay [6] (setting [7])) were 62.5 µg/mL (≈ 196 µM) and 125 µg/mL (≈ 392 µM), respectively.

With `[H]/N=C(/N)N[C@H]1[C@H](O)[C@@H](O)[C@H](O[C@@H]2O[C@@H](C)[C@](O)(C=O)[C@H]2O[C@@H]2O[C@@H](CO)[C@H](O)[C@@H](O)[C@@H]2NC)[C@@H](N/C(N)=N\[H])[C@@H]1O` [STP, streptomycin], in assay [3], the “ZOI without 7.10-EODA” value was 6.0 ± 0.0 mm and the “ZOI with 7.10-EODA” value came to 11.4 mm. Also, in the assay with MDRSA 01ST001 [4], the “antimicrobial activity, disk diffusion” value was “resistant”; the “antimicrobial activity effect in combination with 7,10-EODA” value (from here on “antimicrobial activity effect”) is on record as “strong antimicrobial activity effect”; the “ZOI without 7.10-EODA” value came to 6.0 ± 0.0 mm; the “ZOI with 7.10-EODA” value was 12.9 mm. Besides, the lowest concentration to inhibit growth against MDRSA 01ST001 [5] (Staphylococcus aureus) (MIC) was 62.5 µg/mL (≈ 107 µM). Further, in assay [2], the “clear zone on agar plate” value is recorded as “no clear zone appeared”. For the same molecule, the MIC (in general, the lowest concentration that inhibits growth of the organism) in assay [6] (setting [7]) was 3 µg/mL (≈ 5.16 µM).

Regarding penicillin, the “ZOI without 7.10-EODA” value in assay [3] amounted to 12.9 ± 0.4 mm; in the assay with MDRSA 01ST001 [4], 7.1 ± 0.1 mm. Besides, the “ZOI with 7.10-EODA” value in assay [3] amounted to 13.2 mm; in the assay on MDRSA 01ST001 [4], 13.6 mm. Also, the “antimicrobial activity, disk diffusion” value in the assay on MDRSA 01ST001 [4] is reported as “resistant”. Besides, in the assay with MDRSA 01ST001 [4], the “antimicrobial activity effect” value is “strong antimicrobial activity effect”. Moreover, the “degree of decrease of the MIC90 value of penicillin versus no 7,10-EODA” value is 1/32 with MDRSA 01ST001 [5] (7,10-EODA at 1/16 of its original MIC90) and “¼” in the assay on MDRSA 01ST001 [5] (7,10-EODA at ⅛ of its original MIC90). Moreover, the “MIC90 value of penicillin” value with MDRSA 01ST001 [5] (7,10-EODA not used in combination, OD600) stood at 350 µg/mL; in the assay on MDRSA 01ST001 [5] (in combination with 7.5 μg/mL 7,10-EODA (1/16 of its MIC90)), 87.5 µg/mL; in the assay with MDRSA 01ST001 [5] (in combination with 15.0 μg/mL 7,10-EODA (⅛ of its MIC90)) it was 10.9 µg/mL. For the same molecule, the MIC against MDRSA 01ST001 [5] (setting [8]) was 1000.0 µg/mL; in assay [6], 0.5 µg/mL. The “clear zone on agar plate” value in assay [2] was “no clear zone appeared”.

As for `Oc1cc(Cl)ccc1Oc1ccc(Cl)cc1Cl` [IRG, irgasan], the “ZOI without 7.10-EODA” value in assay [3] is 11.1 ± 0.5 mm; with MDRSA 01ST001 [4], 12.4 ± 0.3 mm. Also, the “ZOI with 7.10-EODA” value in assay [3] is on record as 10.0 mm; in the assay on MDRSA 01ST001 [4], 13.8 mm. For the same molecule, the MIC (against MDRSA 01ST001 [5] (setting [8]); in assay [6]) was 0.1 µg/mL (≈ 0.345 µM) throughout.

On to `O=C(N[C@H](CO)[C@H](O)c1ccc([N+](=O)[O-])cc1)C(Cl)Cl` [CPL, chloramphenicol], for which the “ZOI without 7.10-EODA” value in assay [3] was 7.4 ± 0.2 mm; with MDRSA 01ST001 [4], 13.2 ± 0.4 mm. The figures for the “ZOI with 7.10-EODA” value (in assay [3]; with MDRSA 01ST001 [4]) were 7.21 mm and 13.9 mm, respectively. The MIC (against MDRSA 01ST001 [5] (Staphylococcus aureus); in assay [6] (setting [7])) was 10 µg/mL (≈ 30.9 µM) in each case.

On to `CC1=C(C(=O)O)N2C(=O)[C@@H](NC(=O)[C@H](N)c3ccccc3)[C@H]2SC1` [CEP, cephalexin], for which the results for the “ZOI without 7.10-EODA” value (in assay [3]; with MDRSA 01ST001 [4]) were 15.3 ± 0.1 mm and 10.1 ± 1.3 mm, respectively. In addition, the “ZOI with 7.10-EODA” value in assay [3] was 15.3 mm; in the assay with MDRSA 01ST001 [4], 13.1 mm. Moreover, the MIC in the assay with MDRSA 01ST001 [5] (Staphylococcus aureus) was found to be 1000 µg/mL (≈ 2880 µM); in assay [6] (setting [7]), 1.97 µg/mL (≈ 5.67 µM).

`O=C(O)c1cn(C2CC2)c2cc(N3CCNCC3)c(F)cc2c1=O` [CIP, ciprofloxacin]: in assay [3], the “ZOI without 7.10-EODA” value is 9.6 ± 0.2 mm and the “ZOI with 7.10-EODA” value was determined as 13.2 mm. Also, in the assay on MDRSA 01ST001 [4], the “antimicrobial activity effect” value is on record as “strong antimicrobial activity effect”, the “ZOI without 7.10-EODA” value turned out to be 6.0 ± 0.0 mm and the “ZOI with 7.10-EODA” value is listed as 13.2 mm.
